According to patent US20230165766A1, “DISPERSANT OR DISPERSION MEDIA COMPOSITION COMPRISING 2,3-BUTANEDIOL, AND COSMETIC COMPOSITION COMPRISING SAME” (GS CALTEX CORPORATION, priority 2020, published 2023):

Key:
[1] = Ceramide dispersion force in solubilized essence formulation and O/W emulsion formulation; assay type: physicochemical
Protocol: Further, an experiment for evaluating the dispersion force of ceramide was performed by applying the same to each of the solubilized essence formulation and the O/W emulsion formulation.

[2] = Dispersibility of vitamin C in P/O emulsion under heating condition; assay type: physicochemical; details: vitamin C-containing formulations
Protocol: Vitamin C is a water-soluble substance that dissolves well in water. […] Therefore, in this experiment, vitamin C was applied to a polyol in oil (P/O) formulation as an anhydrous formulation, and an ivory-colored cream was prepared to evaluate dispersibility. It is more important to produce a stable cosmetic without discoloration, odor change, or phase separation rather than the problem of precipitation regarding vitamin C. Thus, factors for evaluating the dispersing power were set as soft spreadability, application uniformity, and emulsion stability. 1 part by weight of […] JC 500B, 1.5 parts by weight of ABIL EM 90, and 2 parts by weight of KF 6017 were added to 100 parts by weight of ELASTOMER BASE to produce an oil-based mixed solution 1. […] Further. 15 parts by weight of ascorbic acid ultra-fine powder was used to prepare a water-based mixed solution 2. Further, 45 parts by weight of KSG-16 was used to prepare an oil-based mixed solution 2. The oil-based mixed solution 1 was heated to 80 to 90° C. while stirring the same. […] The dispersion stability was evaluated as follows: unstable: phase separation between the oil phase and the aqueous phase, discoloration and/or odor change, normal: the oil phase being slightly separated, and stable: no oil phase separation.

[3] = Allantoin dispersion force evaluation (precipitation amount in water); assay type: physicochemical
Source text: Precipitation of allantoin occurs well when the temperature is low. When allantoin is precipitated during cosmetic production, it is problematic. In accordance with the present disclosure, using the property of allantoin whose precipitation occurs well, the dispersion force was identified in a short time by measuring an amount of precipitation of allantoin based on each of the polyols under a severe refrigeration condition when the temperature is low, and then the dispersion forces of the various polyols were compared with each other. The stability was evaluated at each of a room temperature, a refrigeration temperature, and thermostat (45° C.). […] In this experiment, the dispersion force of allantoin, that is, the precipitation amount, and a precipitation rate thereof, based on each of the polyols was evaluated. […] The amount of precipitation of allantoin was measured as follows. […] After the 24 hours or 7 days, a supernatant was removed therefrom, and the resulting mixture was dried in a thermostat to entirely remove any remaining supernatant, leaving only the precipitated portion. Then, the precipitated portion was dried for 12 hours, and then a weight thereof was measured. Thus, the amount of precipitation was derived as a difference value between the measured weight and the previously measured weight of the empty container.

[4] = Dispersion force of allantoin in solubilized formulation; assay type: physicochemical
Protocol: 0.02 parts by weight of EDTA-2Na, 2 parts by weight of 1,2-hexanediol, and 0.5 parts by weight of allantoin were added to 100 parts by weight of purified water to prepare a water-based mixed solution. On the other hand, 0.1 parts by weight of fragrance, 0.3 parts by weight of PEG-60 hydrogenated castor oil, 5 parts by weight of 95% ethanol and 10 parts by weight of the polyol of Present Example 2 were mixed with each other to prepare a solubilized mixed solution. That is, the water-based mixed solution is composed of ultrapure water, EDTA-2Na, 1,2-hexanediol and allantoin, while the solubilized mixed solution is composed of fragrance, PEG-60 hydrogenated castor oil, ethanol and polyol.
The water-based mixed solution was stirred at room temperature for 3 minutes. On the other hand, the solubilized mixed solution was stirred was heating the same to 45 to 50° C. to make the same transparent. Then, the solubilized mixed solution was slowly added to the water-based mixed solution to prepare a mixture which in turn was stirred at room temperature for 2 minutes.
The amount of precipitation of allantoin was measured as follows. […] Then, the precipitated portion was dried for 12 hours, and then a weight thereof was measured. Thus, the amount of precipitation was derived as a difference value between the measured weight and the previously measured weight of the empty container.

[5] = Ceramide dispersion force evaluation (ceramide in polyol); assay type: physicochemical
Protocol: (§1) Ceramide is an oil-soluble substance that is not soluble in water, precipitates easily during cosmetic production. It is difficult to stabilize ceramide due to gelling during the cosmetic production. In accordance with the present disclosure, the dispersion forces based on types of polyols were compared with each other using the characteristics of ceramide that precipitation thereof occurs well. The stability was evaluated at each of the room temperature, the refrigeration temperature, and the thermostat (45° C.).

[6] = Ceramide dispersion force in solubilized skin formulation; assay type: physicochemical
Protocol: as §1
0.02 parts by weight of EDTA-2Na and 2 parts by weight of 1,2-hexanediol were added to 100 parts by weight of purified water to prepare a water-based mixed solution 1. On the other hand, 0.1 parts by weight of fragrance, 0.3 parts by weight of PEG-60 hydrogenated castor oil, and 5 parts by weight of DPG (Dipropylene Glycol) were mixed with each other to produce a solubilized mixed solution. Further, a water-based mixed solution 2 was prepared by mixing 10 parts by weight of polyol of Present Example 6 and 1 part by weight of ceramide with each other.
The water-based mixed solution 1 was stirred at room temperature for 2 minutes. On the other hand, the solubilized mixed solution was heated to 45 to 50° C. while stirring the same to make the same transparent, and then was slowly added to the water-based mixed solution under a stirring operation. […]

[7] = cited from earlier work

SMILES: C[C@H](O)[C@@H](C)O [(2R,3S)-2,3-butanediol]
- dispersion force of ceramide [1]: the dispersion force was excellent
- gelling phenomenon [1]: no gelling phenomenon was observed
- difference between the properties under the heating/non-heating conditions [2]: no significant difference

SMILES: C[C@H](O)[C@@H](C)O [Present Example 1, (2R,3S)-2,3butanediol]
- dispersion force for allantoin [3]: excellent

SMILES: C[C@H](O)[C@@H](C)O [Present Example 2, (2R,3S)-2,3butanediol]
- allantoin dispersion force in the solubilized formulation [4]: excellent

SMILES: C[C@H](O)[C@@H](C)O [Present Example 5, (2R,3S)-2,3butanediol]
- ceramide dispersion force ([5]; 1 part ceramide in 100 parts polyol): ceramide was stably dispersed
- state after 4 weeks in thermostat ([5]; thermostat (45° C.), 4 weeks): excellent dispersing power

SMILES: C[C@H](O)[C@@H](C)O [Present Example 6, (2R,3S)-2,3butanediol]
- ceramide dispersion force [6]: ceramide was stably dispersed

SMILES: NC(=O)NC1NC(=O)NC1=O (stereo not drawn) [allantoin]
- solubility of allantoin [7]: 0.5 g/100 mL
